Columns and labels:
[1] = system: Tyrosine-protein kinase ABL1 (Homo sapiens), P00519 [F317L]; conditions: Compound concentration 1000.0 nM
[2] = system: Tyrosine-protein kinase ABL1 (Homo sapiens), P00519 [M351T]; conditions: Compound concentration 1000.0 nM
[3] = molecular target: 5'-AMP-activated protein kinase catalytic subunit alpha-1 (Homo sapiens) (UniProt Q13131); conditions: Compound concentration 1000.0 nM
[4] = molecular target: Cyclin-dependent kinase 19 (Homo sapiens) (UniProt Q9BWU1); conditions: Compound concentration 1000.0 nM
[5] = molecular target: Casein kinase I isoform gamma-1 (Homo sapiens) (UniProt Q9HCP0); conditions: Compound concentration 1000.0 nM
[6] = system: Epidermal growth factor receptor (Homo sapiens), P00533 [T790M]; conditions: Compound concentration 1000.0 nM
[7] = molecular target: Hormonally up-regulated neu tumor-associated kinase (Homo sapiens) (UniProt P57058); conditions: Compound concentration 1000.0 nM
Hormonally up-regulated neu tumor-associated kinase (Homo sapiens), sequence (P57058 whole entry): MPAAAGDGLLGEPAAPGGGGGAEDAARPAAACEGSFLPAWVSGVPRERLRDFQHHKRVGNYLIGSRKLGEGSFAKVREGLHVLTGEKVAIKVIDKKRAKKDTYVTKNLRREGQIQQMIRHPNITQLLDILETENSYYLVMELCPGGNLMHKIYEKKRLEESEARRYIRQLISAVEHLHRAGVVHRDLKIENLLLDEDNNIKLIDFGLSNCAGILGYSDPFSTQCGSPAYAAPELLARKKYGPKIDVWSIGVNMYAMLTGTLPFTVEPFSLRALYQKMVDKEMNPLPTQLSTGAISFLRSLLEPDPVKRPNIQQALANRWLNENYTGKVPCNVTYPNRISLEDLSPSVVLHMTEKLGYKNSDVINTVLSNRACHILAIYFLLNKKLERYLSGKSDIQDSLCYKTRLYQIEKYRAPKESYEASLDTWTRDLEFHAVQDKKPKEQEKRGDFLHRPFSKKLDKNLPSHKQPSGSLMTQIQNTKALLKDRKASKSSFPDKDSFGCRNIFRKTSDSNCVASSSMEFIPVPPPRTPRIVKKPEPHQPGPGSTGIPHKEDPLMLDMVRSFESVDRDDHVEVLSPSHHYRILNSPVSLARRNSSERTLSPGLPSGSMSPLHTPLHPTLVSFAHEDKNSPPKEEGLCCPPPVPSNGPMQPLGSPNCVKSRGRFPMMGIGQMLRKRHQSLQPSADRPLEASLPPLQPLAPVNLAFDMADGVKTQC

[8] = molecular target: Mitogen-activated protein kinase kinase kinase 1 (Homo sapiens) (UniProt Q13233); conditions: Compound concentration 1000.0 nM
[9] = molecular target: MAP kinase-interacting serine/threonine-protein kinase 1 (Homo sapiens) (UniProt Q9BUB5); conditions: Compound concentration 1000.0 nM
[10] = molecular target: Serine/threonine-protein kinase MRCK alpha (Homo sapiens) (UniProt Q5VT25); conditions: Compound concentration 1000.0 nM
[11] = molecular target: Serine/threonine-protein kinase MRCK beta (Homo sapiens) (UniProt Q9Y5S2); conditions: Compound concentration 1000.0 nM
[12] = molecular target: Serine/threonine-protein kinase NIM1 (Homo sapiens) (UniProt Q8IY84); conditions: Compound concentration 1000.0 nM
[13] = system: Phosphatidylinositol 4,5-bisphosphate 3-kinase catalytic subunit alpha isoform (Homo sapiens), P42336 [Q546K]; conditions: Compound concentration 1000.0 nM
Phosphatidylinositol 4,5-bisphosphate 3-kinase catalytic subunit alpha isoform (Homo sapiens), P42336 [Q546K], sequence (P42336 whole entry Q546K, canonical isoform): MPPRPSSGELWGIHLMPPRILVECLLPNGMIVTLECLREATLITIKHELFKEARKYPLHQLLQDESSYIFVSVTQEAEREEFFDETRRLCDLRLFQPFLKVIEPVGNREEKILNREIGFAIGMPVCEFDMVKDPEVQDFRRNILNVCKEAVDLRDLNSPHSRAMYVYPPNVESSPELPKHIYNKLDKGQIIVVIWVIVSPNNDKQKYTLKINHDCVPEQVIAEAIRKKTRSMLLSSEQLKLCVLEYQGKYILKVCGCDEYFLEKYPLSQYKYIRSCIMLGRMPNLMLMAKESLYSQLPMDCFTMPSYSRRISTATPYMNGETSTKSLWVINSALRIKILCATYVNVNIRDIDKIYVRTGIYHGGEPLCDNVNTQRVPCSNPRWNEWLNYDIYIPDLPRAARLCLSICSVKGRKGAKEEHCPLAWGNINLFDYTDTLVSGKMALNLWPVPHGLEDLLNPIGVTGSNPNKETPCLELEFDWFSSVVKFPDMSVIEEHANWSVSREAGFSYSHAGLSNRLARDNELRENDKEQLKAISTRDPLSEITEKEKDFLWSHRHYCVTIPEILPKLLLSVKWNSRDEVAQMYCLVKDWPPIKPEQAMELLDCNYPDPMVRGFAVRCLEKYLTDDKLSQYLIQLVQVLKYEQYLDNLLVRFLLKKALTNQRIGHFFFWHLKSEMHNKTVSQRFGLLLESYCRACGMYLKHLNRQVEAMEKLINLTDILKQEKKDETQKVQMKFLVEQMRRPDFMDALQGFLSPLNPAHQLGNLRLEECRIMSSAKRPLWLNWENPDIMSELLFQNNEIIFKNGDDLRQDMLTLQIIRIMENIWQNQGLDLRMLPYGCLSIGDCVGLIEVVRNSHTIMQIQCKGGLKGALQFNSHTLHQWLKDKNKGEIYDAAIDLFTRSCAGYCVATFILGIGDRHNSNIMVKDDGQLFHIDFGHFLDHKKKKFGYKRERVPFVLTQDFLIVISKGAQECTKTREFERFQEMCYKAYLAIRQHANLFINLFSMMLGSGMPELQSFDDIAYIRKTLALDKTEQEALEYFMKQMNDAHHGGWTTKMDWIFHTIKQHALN

[14] = molecular target: cAMP-dependent protein kinase catalytic subunit alpha (Homo sapiens) (UniProt P17612); conditions: Compound concentration 1000.0 nM
[15] = molecular target: T1, Serine/threonine-protein kinase D3 (Homo sapiens) (UniProt O94806); conditions: Compound concentration 1000.0 nM
T1 sequence (whole entry): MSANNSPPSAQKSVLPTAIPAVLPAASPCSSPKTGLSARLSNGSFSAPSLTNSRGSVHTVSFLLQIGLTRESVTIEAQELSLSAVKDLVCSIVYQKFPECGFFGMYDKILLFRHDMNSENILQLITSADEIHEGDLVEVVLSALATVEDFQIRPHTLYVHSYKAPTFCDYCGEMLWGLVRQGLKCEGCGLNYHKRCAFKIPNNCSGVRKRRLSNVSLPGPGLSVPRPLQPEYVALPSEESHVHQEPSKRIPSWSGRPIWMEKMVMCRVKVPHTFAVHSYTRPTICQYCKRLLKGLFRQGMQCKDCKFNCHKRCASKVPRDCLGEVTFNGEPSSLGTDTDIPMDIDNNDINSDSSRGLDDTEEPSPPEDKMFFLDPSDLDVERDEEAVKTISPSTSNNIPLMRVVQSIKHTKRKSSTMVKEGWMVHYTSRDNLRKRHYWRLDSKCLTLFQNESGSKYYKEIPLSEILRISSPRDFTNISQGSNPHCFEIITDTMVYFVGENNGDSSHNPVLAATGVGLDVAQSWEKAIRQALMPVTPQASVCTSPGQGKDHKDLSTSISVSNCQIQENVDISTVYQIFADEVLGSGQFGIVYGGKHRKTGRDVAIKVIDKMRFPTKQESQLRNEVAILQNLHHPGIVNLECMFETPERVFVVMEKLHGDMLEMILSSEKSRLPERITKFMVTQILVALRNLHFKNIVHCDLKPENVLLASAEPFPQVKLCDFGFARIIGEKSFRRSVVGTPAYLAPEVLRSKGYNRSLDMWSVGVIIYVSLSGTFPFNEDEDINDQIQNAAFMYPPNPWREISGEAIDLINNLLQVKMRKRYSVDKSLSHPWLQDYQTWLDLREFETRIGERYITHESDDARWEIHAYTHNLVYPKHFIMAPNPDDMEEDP

[16] = molecular target: Ribosomal protein S6 kinase alpha-4 (Homo sapiens) (UniProt O75676); conditions: Compound concentration 1000.0 nM
[17] = molecular target: Ribosomal protein S6 kinase alpha-5 (Homo sapiens) (UniProt O75582); conditions: Compound concentration 1000.0 nM
Ribosomal protein S6 kinase alpha-5 (Homo sapiens), sequence (O75582 whole entry, looked up): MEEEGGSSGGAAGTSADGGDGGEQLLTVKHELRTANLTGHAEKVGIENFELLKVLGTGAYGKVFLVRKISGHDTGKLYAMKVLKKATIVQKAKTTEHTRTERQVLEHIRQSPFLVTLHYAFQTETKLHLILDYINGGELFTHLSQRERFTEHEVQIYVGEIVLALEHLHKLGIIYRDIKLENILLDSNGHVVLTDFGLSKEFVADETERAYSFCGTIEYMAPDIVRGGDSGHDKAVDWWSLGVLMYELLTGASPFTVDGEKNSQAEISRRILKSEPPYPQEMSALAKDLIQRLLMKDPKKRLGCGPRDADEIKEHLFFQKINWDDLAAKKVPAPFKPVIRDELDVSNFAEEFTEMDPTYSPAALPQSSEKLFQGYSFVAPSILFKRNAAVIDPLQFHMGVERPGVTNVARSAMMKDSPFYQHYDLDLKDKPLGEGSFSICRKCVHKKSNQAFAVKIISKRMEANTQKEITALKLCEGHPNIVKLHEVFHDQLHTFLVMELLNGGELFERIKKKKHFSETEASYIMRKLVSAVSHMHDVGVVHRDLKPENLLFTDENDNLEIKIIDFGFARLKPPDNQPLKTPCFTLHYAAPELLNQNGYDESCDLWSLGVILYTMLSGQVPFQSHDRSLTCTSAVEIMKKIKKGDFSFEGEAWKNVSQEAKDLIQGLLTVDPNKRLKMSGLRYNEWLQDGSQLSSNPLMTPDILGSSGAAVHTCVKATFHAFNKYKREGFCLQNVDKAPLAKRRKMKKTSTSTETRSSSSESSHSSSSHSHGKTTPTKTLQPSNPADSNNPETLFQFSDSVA

[18] = molecular target: Serine/threonine-protein kinase SIK1 (Homo sapiens) (UniProt P57059); conditions: Compound concentration 1000.0 nM
[19] = molecular target: SRSF protein kinase 2 (Homo sapiens) (UniProt P78362); conditions: Compound concentration 1000.0 nM
[20] = molecular target: Testis-specific serine/threonine-protein kinase 1 (Homo sapiens) (UniProt Q9BXA7); conditions: Compound concentration 1000.0 nM
[21] = molecular target: Serine/threonine-protein kinase WNK3 (Homo sapiens) (UniProt Q9BYP7); conditions: Compound concentration 1000.0 nM
Serine/threonine-protein kinase WNK3 (Homo sapiens), sequence (Q9BYP7 whole entry): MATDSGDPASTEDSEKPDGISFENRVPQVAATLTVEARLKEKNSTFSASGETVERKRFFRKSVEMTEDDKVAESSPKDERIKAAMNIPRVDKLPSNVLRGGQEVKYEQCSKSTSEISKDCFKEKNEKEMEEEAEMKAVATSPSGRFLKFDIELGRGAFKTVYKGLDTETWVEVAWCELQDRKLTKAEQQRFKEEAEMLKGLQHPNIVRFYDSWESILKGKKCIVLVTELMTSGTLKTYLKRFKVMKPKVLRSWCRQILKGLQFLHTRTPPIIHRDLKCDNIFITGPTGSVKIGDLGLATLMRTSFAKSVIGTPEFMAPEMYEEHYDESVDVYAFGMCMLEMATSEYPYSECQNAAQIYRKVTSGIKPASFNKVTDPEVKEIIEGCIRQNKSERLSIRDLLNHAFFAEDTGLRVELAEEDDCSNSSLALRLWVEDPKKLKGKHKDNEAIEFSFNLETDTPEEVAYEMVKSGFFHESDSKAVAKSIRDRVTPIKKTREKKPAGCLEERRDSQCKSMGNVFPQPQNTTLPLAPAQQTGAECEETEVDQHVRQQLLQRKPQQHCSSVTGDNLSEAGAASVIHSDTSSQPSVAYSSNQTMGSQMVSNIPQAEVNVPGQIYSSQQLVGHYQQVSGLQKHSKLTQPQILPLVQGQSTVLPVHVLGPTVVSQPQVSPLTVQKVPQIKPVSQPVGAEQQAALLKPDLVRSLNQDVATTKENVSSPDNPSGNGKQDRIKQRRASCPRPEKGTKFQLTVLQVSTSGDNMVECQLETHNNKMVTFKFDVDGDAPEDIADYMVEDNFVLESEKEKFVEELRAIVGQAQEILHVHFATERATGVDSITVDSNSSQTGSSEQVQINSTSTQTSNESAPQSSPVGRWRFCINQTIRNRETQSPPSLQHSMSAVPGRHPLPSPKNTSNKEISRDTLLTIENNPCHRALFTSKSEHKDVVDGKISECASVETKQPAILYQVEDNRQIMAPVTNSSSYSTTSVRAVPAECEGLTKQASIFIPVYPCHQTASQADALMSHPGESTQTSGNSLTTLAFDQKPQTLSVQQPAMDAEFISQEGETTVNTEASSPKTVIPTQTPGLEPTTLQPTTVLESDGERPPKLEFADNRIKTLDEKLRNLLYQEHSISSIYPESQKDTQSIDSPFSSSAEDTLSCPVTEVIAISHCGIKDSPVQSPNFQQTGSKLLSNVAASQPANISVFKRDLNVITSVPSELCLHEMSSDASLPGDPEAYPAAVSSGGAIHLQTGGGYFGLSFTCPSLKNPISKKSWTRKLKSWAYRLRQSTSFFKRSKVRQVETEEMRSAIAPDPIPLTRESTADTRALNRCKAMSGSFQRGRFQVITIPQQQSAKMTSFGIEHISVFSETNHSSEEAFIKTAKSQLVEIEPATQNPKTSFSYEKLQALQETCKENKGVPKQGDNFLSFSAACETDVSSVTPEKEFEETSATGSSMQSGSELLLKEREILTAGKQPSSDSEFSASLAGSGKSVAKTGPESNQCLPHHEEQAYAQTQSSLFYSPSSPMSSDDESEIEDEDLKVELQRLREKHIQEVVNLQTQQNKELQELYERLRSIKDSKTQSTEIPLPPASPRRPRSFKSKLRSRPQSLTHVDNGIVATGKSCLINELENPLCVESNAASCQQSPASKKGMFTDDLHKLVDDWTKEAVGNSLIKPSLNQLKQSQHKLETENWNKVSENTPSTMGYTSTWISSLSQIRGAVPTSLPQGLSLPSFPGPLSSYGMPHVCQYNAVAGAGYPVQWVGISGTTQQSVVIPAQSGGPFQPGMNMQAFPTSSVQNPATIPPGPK

[22] = molecular target: Sodium-dependent noradrenaline transporter (Homo sapiens) (UniProt P23975); conditions: Compound concentration 10.0 uM
Sodium-dependent noradrenaline transporter (Homo sapiens), sequence (P23975 whole entry): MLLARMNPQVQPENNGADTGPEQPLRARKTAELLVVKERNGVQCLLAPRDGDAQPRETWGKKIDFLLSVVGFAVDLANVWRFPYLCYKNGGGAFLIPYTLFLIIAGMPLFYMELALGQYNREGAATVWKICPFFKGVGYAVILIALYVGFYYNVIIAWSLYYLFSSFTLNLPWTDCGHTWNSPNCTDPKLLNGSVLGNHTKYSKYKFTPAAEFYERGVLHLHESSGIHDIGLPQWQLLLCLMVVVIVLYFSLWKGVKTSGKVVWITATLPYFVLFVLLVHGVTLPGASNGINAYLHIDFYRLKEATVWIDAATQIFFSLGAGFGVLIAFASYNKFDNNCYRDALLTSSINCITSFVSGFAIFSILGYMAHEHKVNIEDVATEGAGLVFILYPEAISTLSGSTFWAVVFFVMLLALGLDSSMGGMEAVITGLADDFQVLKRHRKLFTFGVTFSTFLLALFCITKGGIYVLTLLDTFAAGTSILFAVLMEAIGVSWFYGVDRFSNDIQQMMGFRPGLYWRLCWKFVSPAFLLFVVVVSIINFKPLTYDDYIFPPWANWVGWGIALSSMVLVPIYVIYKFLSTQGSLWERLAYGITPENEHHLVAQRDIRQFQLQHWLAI

[23] = molecular target: Beta-2 adrenergic receptor (Homo sapiens) (UniProt P07550); conditions: Compound concentration 10.0 uM
[24] = molecular target: Muscarinic acetylcholine receptor M5 (Homo sapiens) (UniProt P08912); conditions: Compound concentration 10.0 uM

CN(C)C(=O)Cn1cc(-c2nc(C3(c4ccc(-c5cnc(N)nc5)cc4)CC3)no2)cn1 [BI 0153]
inactive: residual activity [1] 55% | residual activity [2] 100% | residual activity [3] 98% | residual activity [4] 93% | residual activity [5] 90% | residual activity [6] 80% | residual activity [7] 96% | residual activity [8] 77% | residual activity [9] 85% | residual activity [10] 100% | residual activity [11] 85% | residual activity [12] 83% | residual activity [13] 100% | residual activity [14] 91% | residual activity [15] 92% | residual activity [16] 86% | residual activity [17] 98% | residual activity [18] 86% | residual activity [19] 91% | residual activity [20] 100% | residual activity [21] 87% | inhibition [22] 8.33% | inhibition [23] 3.55% | inhibition [24] -1.63%

CN(C)C(=O)Cn1cc(-c2nc([C@@](C)(c3ccc(-c4cnc(N)nc4)cc3)C3CC3)no2)cn1 [BI 665915]
inactive: residual activity [1] 66% | residual activity [2] 80% | residual activity [3] 95% | residual activity [4] 100% | residual activity [5] 100% | residual activity [6] 100% | residual activity [7] 100% | residual activity [8] 90% | residual activity [9] 85% | residual activity [10] 100% | residual activity [11] 99% | residual activity [12] 86% | residual activity [13] 95% | residual activity [14] 87% | residual activity [15] 100% | residual activity [16] 72% | residual activity [17] 93% | residual activity [18] 52% | residual activity [19] 100% | residual activity [20] 100% | residual activity [21] 76% | inhibition [22] 18.9% | inhibition [23] 0.497% | inhibition [24] 5.21%

Reference: ChEMBL document CHEMBL4507276 (2021)
